Assay: gradient 5% acetonitrile 3 min, to 50% in 2 min, to 85% in 15 min, held 3 min, 100 µL/min
Conditions: column: Zorbax Extend-C18 2.1 x 50 mm; eluents: water / acetonitrile, 0.1% formic acid
In short: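 A Zorbax Extend-C18 column (2.1 × 50 mm, 1.8 μm) run at 100 μL/min with water and acetonitrile, both containing 0.1% formic acid, separated mixtures of ~100 pure standards. The HPLC was coupled to a quadrupole time-of-flight mass spectrometer operated in positive and negative ionization mode, with dead and dwell volumes of 40 μL and 900 μL. Each retention time was taken from a computationally picked adduct peak that was then manually inspected.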

| Structure (SMILES) | RP-LC retention time |
| --- | --- |
| Cc1cc(C)n(-c2ccc(=O)n(CCNS(=O)(=O)c3ccccc3C(F)(F)F)n2)n1 | 763 s |
| Cc1ccc(-c2nnc(-c3nn(C)c4c3CN(S(=O)(=O)c3ccc(CC(C)C)cc3)CC4)o2)cc1 | 1230 s |
| O=C(COc1cccc2c1CCN(Cc1ccccc1F)C2=O)NCc1ccco1 | 790 s |
| COC(=O)c1cccc(NC(=O)CSc2nccc(N3CCN(c4cccc(OC)c4)CC3)n2)c1 | 743 s |
| CCCCC(=O)Nc1nnc(SCc2nnc(-c3ccc4c(c3)OCO4)o2)s1 | 859 s |
| COc1cc(Nc2nc(C(=O)NCCN(C)C)cc3occc23)cc(OC)c1OC | 629 s |
| CCOC(=O)c1[nH]c(C)c(CCC(=O)N2CCCC(C(=O)NC(C)C)C2)c1C (centres undefined) | 723 s |
| CCOC(=O)c1cccc(NC(=O)N2CCN(c3nc4ccccc4n3C)CC2)c1 | 644 s |
| CCc1cc(=O)n(CC(=O)N2CCc3ccccc32)c(-c2ccccc2)n1 | 1170 s |
| CCOC(=O)c1ccc(N2C=C(C#N)S(=O)(=O)c3c(F)cccc32)cc1 | 930 s |
| OC1(c2ccccc2)CCN(Cc2ccccc2)CC1 | 553 s |
| COCCN1CC2(CCN(S(=O)(=O)c3ccc(Cl)cc3C)CC2)C1c1ccccc1 (centres undefined) | 779 s |
| COC(=O)c1ccccc1S(=O)(=O)N1CCN(Cc2nnnn2-c2ccccc2)CC1 | 812 s |
| Cc1cc(-c2nnc3sc(COc4ccc(F)cc4)nn23)n[nH]1 | 727 s |
| Cc1nnc([C@@H]2CC(F)(F)CN2C(=O)c2ccc3ccccc3n2)o1 | 756 s |
| CN(C)c1cccc(C(=O)N2CCCC2c2nc(-c3ccc(F)cc3)no2)c1 (centres undefined) | 985 s |
| CCN1C(=O)C2(CCN(S(=O)(=O)c3ccc4c(c3)CCC4)CC2)c2ccccc21 | 1170 s |
| CCN1C(=O)c2cc(S(=O)(=O)Nc3cc(C)ccc3F)ccc2Oc2cccnc21 | 1030 s |
| Cc1cc2c(c(=O)n(-c3ccc(F)cc3)c(=O)n2CC(=O)Nc2cccc(Br)c2)n1C | 861 s |
| CC1(C(=O)NCc2ccccc2)Cn2cnc(C(=O)NCc3ccccc3Cl)c2C(=O)N1C1CC1 (centres undefined) | 816 s |
| Cc1cc(Nc2nc(N[C@@H](C)c3ncc(F)cn3)ncc2Cl)n[nH]1 | 622 s |
| COc1ccccc1OCC(=O)Nc1ccc2c(c1)CN(C(=O)C1CC1)CC2 | 743 s |
| O=C(Cn1nc2nc(Nc3ccc(F)cc3)ccn2c1=O)NC1CCCC1 | 701 s |

| Structure (SMILES) | RP-LC retention time |
| --- | --- |
| Cc1ccc(Cl)cc1NC(=O)CC1C(=O)NCCN1C(=O)NC1CCCCC1 (centres undefined) | 766 s |
| COc1ccc(-c2cc3nn(CC(=O)Nc4ccccc4OC)c(=O)n3c(C)n2)cc1 | 736 s |
| Cc1ccc(C(=O)N2CCc3[nH]nc(C(=O)N(C)C)c3C2)cc1C | 657 s |
| Cc1nn(-c2ccccc2)c2c1N(CCCC(=O)NCc1ccc(N(C)C)cc1)C(=O)CS2 | 628 s |
| COc1ccc(C(=O)Nc2nc(CC(=O)Nc3ccc4c(c3)OCCO4)cs2)cc1 | 754 s |
| CC(C)n1cnc2c(C(=O)N[C@H]3CN4CCC3CC4)cc(Cl)cc21 | 692 s |
| Cc1ccc(Cl)cc1NC(=O)N1CCc2nc(-c3ccccc3)ncc2C1 | 783 s |
| Cc1cc(=O)c2c(=O)[nH][nH]c2[nH]1 | 567 s |
| O=C(NCc1nc(-c2ccc(N3CCCCC3)cc2)no1)c1ccco1 | 777 s |
| CCCN(CC1CCOC1)C(=O)Nc1cccc(C)c1C (centres undefined) | 818 s |
| COc1ccc(C2Cn3nnc(-c4nc(-c5cccc(Cl)c5)no4)c3CO2)cc1 (centres undefined) | 1250 s |
| COc1ccc(N2CCN(C(=O)CCc3nnc4c5cc(-c6ccccc6)nn5ccn34)CC2)cc1 | 730 s |
| Cn1c(=O)n(C)c2cc(N3CCCCC3)c(NC(=O)NCc3ccc(F)cc3)cc21 | 659 s |
| CN1C(=O)c2cc(S(=O)(=O)Nc3ccc(F)cc3F)ccc2Oc2cccnc21 | 887 s |
| Cc1cc(C)cc(NC(=O)Nc2ccc3nnc(C)n3c2)c1 | 661 s |
| CN1CCCn2nc(C3CCN(C(=O)CSc4ccncc4)CC3)cc2C1=O | 569 s |
| CC(C)C(=O)n1nc(-c2ccc(Cl)cc2)nc1N | 1050 s |
| Cc1ccccc1-c1nc(C2CC(=O)N(c3ccc(F)c(Cl)c3)C2)no1 (centres undefined) | 1140 s |
| O=S(=O)(c1cccc2nsnc12)N1CCCC(Cc2noc(C3CC3)n2)C1 (centres undefined) | 923 s |
| Cc1noc(Cc2nnc(-c3cccc(F)c3)o2)n1 | 730 s |
| CC(C)c1noc(-c2cc(=O)n(CC(=O)Nc3ccccc3Cl)c3ccccc23)n1 | 1050 s |
| O=C(Nc1ccc([N+](=O)[O-])cc1Cl)c1cc(Cl)ccc1O | 1130 s |
| O=S1(=O)N=CN(c2ccc3c(c2)CCC3)c2ncccc21 | 862 s |

| Structure (SMILES) | RP-LC retention time |
| --- | --- |
| COc1c(C)cc(S(=O)(=O)NC2CC(C)(C)NC(C)(C)C2)cc1C | 575 s |
| Cc1nnc2ccc(NC(=O)Nc3ccc(F)cc3)cn12 | 660 s |
| O=C(CN1C(=O)CCC1=O)Nc1nnc(-c2ccc(C(F)(F)F)cc2)o1 | 674 s |
| O=C(Nc1cc(-c2ccsc2)no1)c1ccc(C(F)(F)F)cc1 | 1060 s |
| c1ccc(Nc2c(-c3ccc(N4CCOCC4)cc3)nc3ccccn23)cc1 | 670 s |
| CCC(=O)N1CCc2cc(N3CC(C(=O)N4CCC5(CC4)OCCO5)CC3=O)ccc21 (centres undefined) | 654 s |
| Cc1cccc2nc(-c3c(F)cccc3Cl)c(Nc3ccc4c(c3)OCO4)n12 | 697 s |
| O=c1n(Cc2ccc(F)cc2Cl)nc2ccc(S(=O)(=O)N3CCCCCC3)cn12 | 1050 s |
| Cc1ccc(NC(=O)C2C(=O)NC3(C)CC2c2ccccc2O3)c(C)c1 (centres undefined) | 912 s |
| CCn1cc(C(=O)NCc2ccc(SC)cc2)c(=O)c2ccc(C)nc21 | 997 s |
| CCOc1ccccc1-c1noc(-c2nnn3c2COC(c2ccc(Cl)cc2)C3)n1 (centres undefined) | 1150 s |
| O=C1NCCCCCCN(C(=O)Nc2ccccc2F)[C@H]2CCCC[C@@H]12 | 846 s |
| COC1CCOC2(CCN(C(=O)c3ccco3)CC2)C1 (centres undefined) | 645 s |
| CCC(CC)C(=O)Nc1ccc(-c2nc(-c3ccc(Cl)cc3)no2)cc1 | 639 s |
| COc1ccc(N2C(=O)CN(Cc3ccccc3C)[C@H]3CS(=O)(=O)C[C@H]32)cc1Cl | 879 s |
| CS(=O)(=O)N1CCN=C1SCc1ccc(Cl)c(Cl)c1 | 889 s |
| CCCN1CCN(c2cc(C(=O)O)c3cc(NS(=O)(=O)c4cc(C)c(C)cc4C)ccc3n2)CC1 | 653 s |
| O=C(NCCOc1ccc(F)cc1)C(=O)Nc1ccc(Cl)cn1 | 912 s |
| CCOc1ccccc1C1NC(=O)N(CC(=O)Nc2ccc(C(F)(F)F)cc2)C2=C1C(=O)OC2 (centres undefined) | 888 s |
| CCCNC(=O)c1cc(C)nc2c(Cl)cccc12 | 753 s |
| Cc1cccc(N2CCN(C(=O)C3CCN(c4cnc5nccnc5c4)CC3)CC2)c1 | 749 s |
| CCCN1CCN(C2CCN(C(=O)C(CC)CC)CC2)C1=O | 727 s |
| C#CCOCC(O)CN1CCN(c2cc(Cl)ccc2C)CC1 (centres undefined) | 577 s |

| Structure (SMILES) | RP-LC retention time |
| --- | --- |
| CCc1ccc(-c2nc3ccc(C)cn3c2CN2CCC(F)(COC)CC2)cc1 | 642 s |
| Cc1cccc(C)c1NS(=O)(=O)c1ccc(-c2c(C)noc2C)cc1 | 964 s |
| CCS(=O)(=O)N1CCc2c(c(CN(C(=O)c3ccccc3)c3ccccc3)nn2C)C1 | 775 s |
| CCOC(=O)c1ccc(NC(=O)CN2CCc3[nH]c4c(C)c(C)ccc4c(=O)c3C2)cc1 | 639 s |
| CC(C)Oc1ccc(NC(=O)C2CCN(S(C)(=O)=O)c3cc(Cl)ccc3O2)cc1 (centres undefined) | 1020 s |
| Cc1ccc(-n2nc(N3CCN(C(=O)CC(C)C)CC3)ccc2=O)cc1C | 831 s |
| COC(=O)c1ccc2c(=O)n(-c3ccc(C)c(C)c3)c(N3CCC(C)CC3)nc2c1 | 1440 s |
| Cc1cc(NS(=O)(=O)c2cc3n(c2)CCCNC3=O)ccc1Cl | 711 s |
| O=C(CC(F)(F)F)NCCc1noc(C2CC2)n1 | 671 s |
| COC(=O)c1c(-c2ccccc2)noc1NCc1cccc(OC)c1 | 677 s |
| CCc1ccc(Oc2cc(N3CCC(C(=O)NCCc4cccnc4)CC3)ncn2)cc1 | 657 s |
| COCCNc1c(-c2ccc(F)cc2)nc2sc(C(=O)N3CCCC3)c(C)n12 | 757 s |
| Cn1cccc1C(=O)N1CC(Oc2cccc(-c3nc(-c4ccccc4)no3)c2)C1 | 1220 s |
| Cn1nc(C(=O)Nc2ccc3c(c2)C(=O)N2CCC[C@H]2C(=O)N3)c2ccccc21 | 714 s |
| COc1ccc(C2C(C(=O)N3CCCCC3)c3cc(OC)c(OC)cc3C(=O)N2C)cc1OC (centres undefined) | 706 s |
| O=S(=O)(NCc1nnnn1C1CCCCC1)c1cccs1 | 740 s |
| COc1cc(NS(=O)(=O)c2cn(C(C)C)c3ncccc23)cc(OC)c1 | 876 s |
| Cc1ccc(NC(=O)Nc2ccc3nncn3c2)cc1F | 723 s |
| O=C(Cn1nc2n(c1=O)CCCCC2)NCc1ccccc1Br | 705 s |
| CCCCS(=O)(=O)N1CCC(N2CC(F)(F)C[C@H]2COc2cccnc2)CC1 | 682 s |
